Assays:
[1] = target: T1, Adenosine receptor A2b (Homo sapiens, UniProt P29275); experiment: Displacement of [3H]-MRS-1754 from human adenosine receptor A2b expressed in HEK293 cell membranes after 90 mins by liquid scintillation counting method
T1 sequence (P29275 whole entry): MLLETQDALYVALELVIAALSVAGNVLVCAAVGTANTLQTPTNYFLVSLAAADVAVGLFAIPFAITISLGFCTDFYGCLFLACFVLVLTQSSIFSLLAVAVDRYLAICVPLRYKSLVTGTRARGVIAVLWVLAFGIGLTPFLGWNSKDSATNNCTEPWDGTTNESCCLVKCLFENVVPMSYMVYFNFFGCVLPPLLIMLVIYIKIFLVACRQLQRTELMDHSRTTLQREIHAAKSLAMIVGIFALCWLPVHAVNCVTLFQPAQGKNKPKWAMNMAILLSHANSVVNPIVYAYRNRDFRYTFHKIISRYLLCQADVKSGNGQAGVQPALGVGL

[2] = target: Adenosine receptor A2a (Homo sapiens, UniProt P29274); experiment: Displacement of [3H]-ZM-241385 from human adenosine receptor A2a expressed in HEK293 cell membranes at 0.1 uM after 90 mins by liquid scintillation counting method relative to control
Sequence of Adenosine receptor A2a (P29274 whole entry): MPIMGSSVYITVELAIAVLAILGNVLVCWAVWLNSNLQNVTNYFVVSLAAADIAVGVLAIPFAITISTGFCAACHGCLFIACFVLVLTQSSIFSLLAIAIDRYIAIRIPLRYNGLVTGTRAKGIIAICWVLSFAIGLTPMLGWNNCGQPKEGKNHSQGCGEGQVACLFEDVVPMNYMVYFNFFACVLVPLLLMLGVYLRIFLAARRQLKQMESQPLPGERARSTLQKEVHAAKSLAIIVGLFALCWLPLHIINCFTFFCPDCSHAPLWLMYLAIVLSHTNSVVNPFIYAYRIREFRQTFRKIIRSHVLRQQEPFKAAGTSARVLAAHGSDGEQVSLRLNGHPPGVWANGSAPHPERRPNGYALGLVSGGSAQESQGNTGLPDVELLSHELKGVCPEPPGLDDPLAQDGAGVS

[3] = target: T2, Adenosine receptor A3 (Homo sapiens) (UniProt P0DMS8); experiment: Displacement of [3H]-HEM-ADO from human adenosine receptor A3 expressed in HEK293 cell membranes at 1 uM after 90 mins by liquid scintillation counting method relative to control
T2 sequence (whole entry): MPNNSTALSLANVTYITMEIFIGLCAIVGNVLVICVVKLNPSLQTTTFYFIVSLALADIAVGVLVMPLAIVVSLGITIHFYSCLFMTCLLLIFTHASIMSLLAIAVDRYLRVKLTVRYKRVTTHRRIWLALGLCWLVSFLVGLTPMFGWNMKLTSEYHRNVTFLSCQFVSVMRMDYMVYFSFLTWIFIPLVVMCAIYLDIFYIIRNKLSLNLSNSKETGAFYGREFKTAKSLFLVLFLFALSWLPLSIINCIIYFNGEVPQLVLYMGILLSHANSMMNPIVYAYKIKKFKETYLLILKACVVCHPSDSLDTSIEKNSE

[4] = target: T3, Adenosine receptor A1 (Homo sapiens) (UniProt P30542); experiment: Displacement of [3H]DPCPX from human adenosine receptor A1 expressed in HEK293 cell membranes at 0.1 uM after 90 mins by liquid scintillation counting method relative to control
T3 sequence (whole entry): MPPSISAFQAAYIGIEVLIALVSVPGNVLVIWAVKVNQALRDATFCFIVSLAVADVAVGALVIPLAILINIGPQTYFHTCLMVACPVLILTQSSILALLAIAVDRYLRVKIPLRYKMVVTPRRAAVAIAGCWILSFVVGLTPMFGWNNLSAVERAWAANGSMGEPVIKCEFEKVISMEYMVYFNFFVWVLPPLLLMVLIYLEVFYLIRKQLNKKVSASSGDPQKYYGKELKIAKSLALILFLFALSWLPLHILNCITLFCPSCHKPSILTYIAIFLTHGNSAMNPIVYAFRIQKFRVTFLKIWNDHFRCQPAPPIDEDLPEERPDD

[5] = system: Liver; experiment: Metabolic stability in human liver microsomes assessed as metabolic rate per mg protein preincubated for 5 mins followed by NADPH addition measured up to 30 mins by LC-MS/MS analysis; assay type: ADME, microsome; conditions: 0.5 h
[6] = system: Liver; experiment: Metabolic stability in mouse liver microsomes assessed as metabolic rate per mg protein preincubated for 5 mins followed by NADPH addition measured up to 30 mins by LC-MS/MS analysis; assay type: ADME, microsome; conditions: 0.5 h

| SMILES | Ki [1] | inhibition [2] | inhibition [3] | inhibition [4] | Drug metabolism [5] | Drug metabolism [6] |
| --- | --- | --- | --- | --- | --- | --- |
| CCCn1c(=O)c2[nH]c(-c3cnn(CC(=O)N4CCN(c5ccc(C(F)(F)F)cc5)CC4)c3)nc2n(CCC)c1=O | 0.9 nM | 71% | 11% | 53% | – | – |
| CCCn1c(=O)c2[nH]c(-c3cnn(CC4CC(=O)N(c5ccc(C#N)cc5)C4)c3)nc2n(CCC)c1=O (stereo unspecified) | 23 nM | 20% | 2% | 18% | 0.15 nmol/min/mg | 0 nmol/min/mg |
| CCCn1c(=O)c2[nH]c(-c3cnn(CC4CCN(c5cccc(C(F)(F)F)c5)C4=O)c3)nc2n(CCC)c1=O (stereo unspecified) | 6 nM | 30% | 17% | 58% | 0.2 nmol/min/mg | 0.34 nmol/min/mg |
| CCCn1c(=O)c2[nH]c(-c3cnn(CC(=O)N4CCN(c5ccc(F)c(Cl)c5)CC4)c3)nc2n(CCC)c1=O | 1.8 nM | 72% | 17% | 56% | – | – |
| CCCn1c(=O)c2[nH]c(-c3cnn(C(C)C4CC(=O)N(c5cccc(C(F)(F)F)c5)C4)c3)nc2n(CCC)c1=O (stereo unspecified) | 4 nM | 15% | 18% | 17% | 0.2 nmol/min/mg | 0.59 nmol/min/mg |
| CCCn1c(=O)c2[nH]c(-c3cnn(CC4CC(=O)N(c5cccc(OC(F)(F)F)c5)C4)c3)nc2n(CC)c1=O (stereo unspecified) | 17.5 nM | 16% | 3% | 15% | 0.4 nmol/min/mg | 0.25 nmol/min/mg |
| CCCn1c(=O)c2[nH]c(-c3cnn(CC4CC(=O)N(c5cccc(F)c5)C4)c3)nc2n(CC)c1=O (stereo unspecified) | 24 nM | 37% | 0% | 30% | 0.06 nmol/min/mg | 0.29 nmol/min/mg |
| CCCn1c(=O)c2[nH]c(-c3cnn(CC4CC(=O)N(c5ccc(C(=O)O)cc5)C4)c3)nc2n(CCC)c1=O (stereo unspecified) | 77 nM | – | – | – | – | – |
| CCCn1c(=O)c2[nH]c(-c3cnn(CC4CCN(c5cccc(C(F)(F)F)c5)C4)c3)nc2n(CCC)c1=O (stereo unspecified) | 3.6 nM | 57% | 2% | 38% | 0.01 nmol/min/mg | 0 nmol/min/mg |
| CCCn1c(=O)c2[nH]c(-c3cnn(CC4CC(=O)N(c5cccc(OC)c5)C4)c3)nc2n(CCC)c1=O (stereo unspecified) | 21.6 nM | 46% | 11% | 22% | 0.18 nmol/min/mg | 0.41 nmol/min/mg |
| CCCn1c(=O)c2[nH]c(-c3cnn(CC4CC(=O)N(c5ccc(OC(F)(F)F)cc5)C4)c3)nc2n(CCC)c1=O (stereo unspecified) | 4 nM | 24% | 0% | 23% | 0.13 nmol/min/mg | 0.24 nmol/min/mg |
| CCCn1c(=O)c2[nH]c(-c3cnn(CC4CCN(c5ccc(OC)cc5)C4)c3)nc2n(CCC)c1=O (stereo unspecified) | 13 nM | 53% | 3% | 21% | 0.37 nmol/min/mg | 0.43 nmol/min/mg |
| CCCn1c(=O)c2[nH]c(-c3cnn(CC4CCN(c5ccc(C)cc5)C4)c3)nc2n(CCC)c1=O (stereo unspecified) | 12 nM | 51% | 2% | 26% | 0.66 nmol/min/mg | 0.38 nmol/min/mg |
| CCCn1c(=O)c2[nH]c(-c3cnn(CC4CC(=O)N(c5ccc(F)cc5)C4)c3)nc2n(CCC)c1=O (stereo unspecified) | 9.7 nM | 42% | 14% | 31% | 0.06 nmol/min/mg | 0.19 nmol/min/mg |
| CCCn1c(=O)c2[nH]c(-c3cnn(CC4CC(=O)N(c5ccc(OC)cc5)C4)c3)nc2n(CCC)c1=O (stereo unspecified) | 9 nM | 51% | 27% | 38% | 0.19 nmol/min/mg | 0.22 nmol/min/mg |

Continued by falling Ki [1], values first:

| Ki [1] | inhibition [2] | inhibition [3] | inhibition [4] | Drug metabolism [5] | Drug metabolism [6] | SMILES |
| --- | --- | --- | --- | --- | --- | --- |
| 210 nM | 0% | 7% | 0% | – | – | CCCn1c(=O)c2[nH]c(-c3cc(OCC4CC(=O)N(c5ccc(F)cc5)C4)no3)nc2n(CCC)c1=O (stereo unspecified) |
| 90 nM | – | – | – | – | – | CCCn1c(=O)c2[nH]c(-c3cc(OCC4CC(=O)N(c5cccc(F)c5)C4)no3)nc2n(CCC)c1=O (stereo unspecified) |
| 69 nM | 0% | 5% | 0% | – | – | CCCn1c(=O)c2[nH]c(-c3cc(OCC4CC(=O)N(c5cccc(C(F)(F)F)c5)C4)no3)nc2n(CCC)c1=O (stereo unspecified) |
| 43 nM | – | – | – | – | – | CCCn1c(=O)c2[nH]c(-c3cnn(CC4CCN(c5cccc(F)c5)C4=O)c3)nc2n(CCC)c1=O (stereo unspecified) |
| 41 nM | 68% | 17% | 32% | 0.02 nmol/min/mg | 0.35 nmol/min/mg | CCCn1c(=O)c2[nH]c(-c3cnn(CC4CC(=O)N(c5cccc(F)c5)C4)c3)nc2n(CCC)c1=O (stereo unspecified) |
| 19 nM | 45% | 0% | 13% | 0.03 nmol/min/mg | 0.48 nmol/min/mg | CCCn1c(=O)c2[nH]c(-c3cnn(CC4CC(=O)N(c5ccc(F)cc5F)C4)c3)nc2n(CCC)c1=O (stereo unspecified) |
| 14 nM | 26% | 2% | 23% | 0.16 nmol/min/mg | 0.15 nmol/min/mg | CCCn1c(=O)c2[nH]c(-c3cnn(CC4CCN(c5ccc(OC(F)(F)F)cc5)C4)c3)nc2n(CCC)c1=O (stereo unspecified) |
| 13.7 nM | 69% | 12% | 43% | 0.78 nmol/min/mg | 0.67 nmol/min/mg | CCCn1c(=O)c2[nH]c(-c3cnn(CC4CCN(c5cccc(OC)c5)C4)c3)nc2n(CCC)c1=O (stereo unspecified) |
| 10.7 nM | 56% | 0% | 45% | 0.11 nmol/min/mg | 0.23 nmol/min/mg | CCCn1c(=O)c2[nH]c(-c3cnn(CC(=O)N4CCN(c5ccc(F)cc5F)CC4)c3)nc2n(CCC)c1=O |
| 10.7 nM | 0% | 0% | 29% | 0.18 nmol/min/mg | 0.46 nmol/min/mg | CCCn1c(=O)c2[nH]c(-c3cnn(CC4CC(=O)N(c5cccc(C)c5)C4)c3)nc2n(CCC)c1=O (stereo unspecified) |
| 9 nM | 49% | 0% | 20% | 0.23 nmol/min/mg | 0.57 nmol/min/mg | CCCn1c(=O)c2[nH]c(-c3cnn(CC4CC(=O)N(c5cccc(OC(F)(F)F)c5)C4)c3)nc2n(CCC)c1=O (stereo unspecified) |
| 8 nM | 37% | 0% | 33% | – | 0.25 nmol/min/mg | CCCn1c(=O)c2[nH]c(-c3cnn(CC4CC(=O)N(c5ccc(C)cc5)C4)c3)nc2n(CCC)c1=O (stereo unspecified) |
| 6.5 nM | 48% | 31% | 25% | 0.18 nmol/min/mg | 0.61 nmol/min/mg | CCCn1c(=O)c2[nH]c(-c3cnn(CC4CC(=O)N(c5cccc(C(F)(F)F)c5)C4)c3)nc2n(CCC)c1=O (stereo unspecified) |
| 5 nM | 58% | 11% | 58% | – | – | CCCn1c(=O)c2[nH]c(-c3cnn(CC(=O)N4CCN(c5ccc(C)cc5)CC4)c3)nc2n(CCC)c1=O |
| 4.5 nM | 23% | 0% | 18% | 0.12 nmol/min/mg | 0.49 nmol/min/mg | CCCn1c(=O)c2[nH]c(-c3cnn(CC4CC(=O)N(c5cccc(C(F)(F)F)c5)C4)c3)nc2n(CC)c1=O (stereo unspecified) |
| 2.6 nM | 65% | 29% | 40% | 0.14 nmol/min/mg | 0.3 nmol/min/mg | CCCn1c(=O)c2[nH]c(-c3cnn(CCC4CC(=O)N(c5cccc(C(F)(F)F)c5)C4)c3)nc2n(CCC)c1=O (stereo unspecified) |
| 1.2 nM | 60% | 27% | 12% | 0.19 nmol/min/mg | 0.22 nmol/min/mg | CCCn1c(=O)c2[nH]c(-c3cnn(CC(O)C4CC(=O)N(c5cccc(C(F)(F)F)c5)C4)c3)nc2n(CCC)c1=O (stereo unspecified) |
